Here are results for 13 compounds from US5665765A, “5,6,7,8-tetrahydronaphtho[2,3-b]furan and indano[5,6-b]furan amine compounds” (Adir et Compagnie, priority 1995, dated 1997).

T1 sequence (P35462 whole entry): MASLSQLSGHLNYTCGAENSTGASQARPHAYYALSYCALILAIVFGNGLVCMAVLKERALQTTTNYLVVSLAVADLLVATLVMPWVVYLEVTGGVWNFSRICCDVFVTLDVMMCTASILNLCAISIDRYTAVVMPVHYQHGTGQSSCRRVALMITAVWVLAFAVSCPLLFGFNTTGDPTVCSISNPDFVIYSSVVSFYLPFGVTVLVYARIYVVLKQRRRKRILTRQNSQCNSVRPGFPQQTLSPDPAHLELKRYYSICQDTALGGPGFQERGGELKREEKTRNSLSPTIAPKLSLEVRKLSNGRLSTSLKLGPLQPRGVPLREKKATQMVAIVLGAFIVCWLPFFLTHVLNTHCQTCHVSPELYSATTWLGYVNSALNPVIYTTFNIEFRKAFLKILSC

One experiment addresses T1, human dopamine D3 receptor (Homo sapiens, UniProt P35462).
T1 construct: expressed in transfected cells; membranes
In words: binding to human D3 receptors expressed in CHO cells ([125I]-iodosulpride).
Conditions: not given
The method, then: (§1) STUDY OF THE BINDING OF THE COMPOUNDS OF THE INVENTION TO HUMAN D2 AND D3 RECEPTORS EXPRESSED IN CHO CELLS
(§2) CHO (Chinese Hamster Ovary) cells were transfected in a stable manner by the gene coding for the human dopamine D2 or D3 receptor according to methods known from the literature. The native cells are deficient in the enzyme DHFR (DiHydroFolate Reductase). Those cells are cultured in a vessel at 37° C. in a humid atmosphere of 5% CO2 : 95% air. The transfections were carried out using Lipofectine (Gibco). The CHO cells, cotransfected with the human D2 receptor and the gene for resistance to phleomycin, were selected for their resistance to the presence of that antibiotic in the culture medium. The cells transfected with the human D3 receptor were selected in a medium lacking in hypoxanthine/thymidine, in the presence of methotrexate. The compositions of the culture media used are, for CHO--D2 : DMEM (Dulbecco's Modified Eagle Medium) supplemented with 10% foetal calf serum and hypoxanthine/thymidine and, for CHO--D3 : DMEM supplemented with 10% dialysed foetal calf serum. The confluent cells are harvested and the membranes are then prepared.
After a few minutes in the presence of 0.2% trypsin, the cells are recovered and centrifuged at 2000 g for 5 minutes. The cell mass, resuspended in […] tris-HCl buffer, pH 7.5, containing 5 mM MgSO4, is then […] over Polytron®. The homogenate is then centrifuged at 50 000 g for 15 minutes, and the mass is resuspended by gentle sonication in an incubation buffer of the following composition: 50 mM tris-HCl, pH 7.5, containing 120 mM NaCl, 5 mM KCl, 2 mM CaCl2 and 5 mM MgCl2. The membranes are then divided into aliquots and preserved at -80° C. until the day of the experiment.
The incubation is carried out in polypropylene tubes at a final volume of 400 μl containing:
100 μl of [^125 I]-iodosulpride (Amersham) at 0.1 and 0.2 nM for the D2 and D3 receptors respectively.
100 μl of buffer (total tubes)
100 μl of raclopride 10 μM (non-specific binding)
200 μl of membrane preparation containing the D2 or D3 receptors, in a buffer to which
0.2% BSA (bovine serum albumin) has been added.
(§3) The ranges of concentration of each compound include at least 7 points determined in triplicate; each experiment is repeated at least twice.
The incubation, which lasts 30 minutes at 30° C., is terminated by rapid filtration in a Brandle apparatus, followed by three consecutive washes with tris-HCl buffer, pH 7.4, containing 120 m M NaCl. The filters recovered are then counted with a gamma counter.
The IC50, which represents the concentration that gives a 50% inhibition of the binding of the radioligand, is calculated by non-linear regression (Prism Graph method). The Ki value is derived from the formula Ki=IC50 (1+L/Kd) where L is the concentration of [^125 I]-iodosulpride used in the experiment and Kd its dissociation constant. The results are expressed in the form of pKi (pKi=-logKi).
Turning to `CCCN[C@@H]1CCc2c(OC)cccc2[C@@H]1C` [AJ 76, [cis(+)-1S,2R]-5-methoxy-1-methyl-2-n-propylaminotetralin], the Ki was 69.2 nM.

The experiment is the same for the next values; noted with them: [125I]-iodosulpride 0.2 nM, CHO cell membranes, 30 min at 30° C.; pKi=-logKi; read-out: pKi (human D3) (converted).
For the compound `NC1CCc2cc3c(cc2C1)OCC3` (stereo not drawn), the Ki was 158 nM.

Regarding `CCCN(CCc1ccc2c(c1)CC(=O)N2)C1CCc2cc3c(cc2C1)OCC3` (racemic) [Example 6, (7RS)-7-{N-[2-((3H)-indol-2-on-5-yl)ethyl]-N-propylamino}-5,6,7,8-tetrahydronaphtho[2,3-b]2,3-dihydrofuran], the Ki is 1.15 nM.

For the compound `CCCN(CCCc1ccc(NC(C)=O)cc1)C1CCc2cc3c(cc2C1)OCC3` (racemic) [Example 13], the Ki is 3.55 nM.

For `FC(F)(F)CNC1CCc2cc3c(cc2C1)OCC3` (stereo not drawn), the Ki is 10000 nM.

`NC1CCc2cc3ccoc3cc2C1` (stereo not drawn): the Ki was 389 nM.

In the case of `CCOCCNC1CCc2cc3c(cc2C1)OCC3` (stereo not drawn), the Ki was 759 nM.

`CCCN(CCCc1ccc2c(c1)CC(=O)N2)C1CCc2cc3c(cc2C1)OCC3` (racemic) [Example 7, (7RS)-7-{N-[3-((3H)-indol-2-on-5-yl)propyl]-N-propylamino}-5,6,7,8-tetrahydronaphtho[2,3-b]2,3-dihydrofuran]: the Ki is 3.47 nM.

As for `CCCN(CCc1ccc(O)cc1)C1CCc2cc3c(cc2C1)OCC3` (racemic) [Example 3, (7RS)-7-{N-[2-(4-hydroxyphenyl)ethyl]-N-propylamino}-5,6,7,8-tetrahydronaphtho[2,3-b]2,3-dihydrofuran], the Ki is 2.24 nM.

For `CN(C)C1CCc2cc3c(cc2C1)OCC3` (stereo not drawn), the Ki was 209 nM.

In the case of `CN(CC1CCCCC1)C1CCc2cc3c(cc2C1)OCC3` (stereo not drawn), the Ki is 151 nM.

As to `c1ccc(CNC2CCc3cc4c(cc3C2)OCC4)cc1` (stereo not drawn), the Ki is 1170 nM.

Staying with this experiment, now noted: human D3 vs D2 binding.
`CCCN[C@@H]1CCc2c(OC)cccc2[C@@H]1C` [AJ 76, [cis(+)-1S,2R]-5-methoxy-1-methyl-2-n-propylaminotetralin]: the “selectivity for the D3 receptor compared with the D2 receptor” value amounted to 2.

The experiment is the same for the next values; noted with them: radioligand dissociation constant used in Ki formula.
As usually defined, the Kd is the concentration at which binding is half-saturated. Read a low Kd as tighter binding. On to [^125 I]-iodosulpride, for which the dissociation constant (Kd) was found to be 1.31 nM.

A further experiment deals with T2, human dopamine D2 receptor (Homo sapiens, UniProt P14416).
T2 construct: expressed in transfected cells; membranes
T2 sequence (P14416 whole entry): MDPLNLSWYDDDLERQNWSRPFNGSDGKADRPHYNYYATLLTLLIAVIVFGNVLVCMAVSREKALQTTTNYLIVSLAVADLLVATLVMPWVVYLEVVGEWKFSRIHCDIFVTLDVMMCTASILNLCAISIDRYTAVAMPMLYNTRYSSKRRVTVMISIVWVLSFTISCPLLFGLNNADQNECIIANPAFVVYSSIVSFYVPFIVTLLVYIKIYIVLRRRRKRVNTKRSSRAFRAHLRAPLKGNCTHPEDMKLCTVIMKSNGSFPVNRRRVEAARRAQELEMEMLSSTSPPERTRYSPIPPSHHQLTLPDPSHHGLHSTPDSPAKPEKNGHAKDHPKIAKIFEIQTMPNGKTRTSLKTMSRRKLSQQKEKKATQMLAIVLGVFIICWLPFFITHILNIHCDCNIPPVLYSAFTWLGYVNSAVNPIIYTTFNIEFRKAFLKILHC
In words: binding to human D2 receptors expressed in CHO cells ([125I]-iodosulpride). The following applies: radioligand dissociation constant used in Ki formula. The method, then:
as §1
as §2, with “The compositions of the culture media used are, for CHO--D2 : DMEM (Dulbecco's Modified Eagle Medium) supplemented with 10% foetal calf serum and hypoxanthine/thymidine and, for CHO--D3 : DMEM supplemented with 10% dialysed foetal calf serum. The confluent cells are harvested and the membranes are then prepared.” left out
as §3
The incubation, which lasts 30 minutes at 30° C., is terminated by rapid filtration in a Brandle apparatus, followed by three consecutive washes with tris-HCl buffer, pH 7.4, containing 120 m M NaCl. The filters recovered are then counted with a gamma counter. […]
As for [^125 I]-iodosulpride, binding was put at a Kd of 0.5 nM.
